Experimental data as given in patent publication US12172959B2, “Mono- or di-substituted indole derivatives as dengue viral replication inhibitors” (priority 2015, dated 2024).

Experiments:
[1] = tested on: Vero cells; settings: African green monkey
[2] = tested on: DENV-2 16681 strain; experiment: DENV-2 antiviral assay (eGFP fluorescence, Vero cells); format: cell-based, Dengue virus; settings: DENV-2 16681 eGFP, MOI 0.5, 3 days
Description: The antiviral activity of all the compounds of the invention was tested against the DENV-2 16681 strain which was labeled with enhanced green fluorescent protein (eGPF; Table 1). The culture medium consists of minimal essential medium supplemented with 2% of heat-inactivated fetal calf serum, 0.04% gentamycin (50 mg/mL) and 2 mM of L-glutamine. Vero cells, obtained from ECACC, were suspended in culture medium and 25 μL was added to 384-well plates (2500 cells/well), which already contain the antiviral compounds. Typically, these plates contain a 5-fold serial dilution of 9 dilution steps of the test compound at 200 times the final concentration in 100% DMSO (200 nL). […] Finally, each plate contains wells which are assigned as virus controls (containing cells and virus in the absence of compound), cell controls (containing cells in the absence of virus and compound) and medium controls (containing medium in the absence of cells, virus and compounds). To the wells assigned as medium control, 25 μL of culture medium was added instead of Vero cells. Once the cells were added to the plates, the plates were incubated for 30 minutes at room temperature to allow the cells to distribute evenly within the wells. Next, the plates were incubated in a fully humidified incubator (37° C., 5% CO2) until the next day. Then, DENV-2 strain 16681, labeled with eGFP, was added at a multiplicity of infection (MOI) of 0.5. Therefore, 15 μL of virus suspension was added to all the wells containing test compound and to the wells assigned as virus control. In parallel, 15 μL of culture medium was added to the medium and cell controls. Next, the plates were incubated for 3 days in a fully humidified incubator (37° C., 5% CO2). At the day of the read out, the eGFP fluorescence was measured using an automated fluorescence microscope at 488 nm (blue laser). Using an in-house LIMS system, inhibition dose response curves for each compound were calculated and the half maximal effective concentration (EC50) was determined. Therefore, the percent inhibition (I) for every test concentration is calculated using the following formula: I=100*(ST−SCC)/(SVC−SCC); ST, SCC and SVC are the amount of eGFP signal in the test compound, cell control and virus control wells, respectively. The EC50 represents the concentration of a compound at which the virus replication is inhibited with 50%, as measured by a 50% reduction of the eGFP fluorescent intensity compared to the virus control. The EC50 is calculated using linear interpolation.

Row | Structure (SMILES) | CC50 [1] [nM] | EC50 [2] [nM] | EC50 ([2]; Dengue virus, DENV2, Vero, 72 h) [nM]
1 | COc1cc(NC(C(=O)c2c[nH]c3cc(OC)c(C)cc23)c2ccc(Cl)cc2OC)cc(S(C)(=O)=O)c1 (single isomer, unassigned) [Compound 4B, 2-(4-chloro-2-methoxyphenyl)-2-((3-methoxy-5-(methyl-sulfonyl)phenyl)amino)-1-(6-methoxy-5-methyl-1H-indol-3-yl)ethanone] | 12000 | 36 | –
2 | COc1cc(NC(C(=O)c2c[nH]c3ccc(OC(F)(F)F)cc23)c2ccc(Cl)cc2OC)cc(S(C)(=O)=O)c1 (single isomer, unassigned) [Compound 9B, 2-(4-chloro-2-methoxyphenyl)-2-((3-methoxy-5-(methyl-sulfonyl)phenyl)amino)-1-(5-(trifluoromethoxy)-1H-indol-3-yl)ethanone] | 6200 | 3.8 | –
3 | COc1cc(NC(C(=O)c2c[nH]c3cc(OC)c(OC(F)(F)F)cc23)c2ccc(Cl)cc2OC)cc(S(C)(=O)=O)c1 (single isomer, unassigned) [Compound 10B, 2-(4-chloro-2-methoxyphenyl)-2-((3-methoxy-5-(methylsulfonyl)phenyl)amino)-1-(6-methoxy-5-(trifluoromethoxy)-1H-indol-3-yl)ethanone] | 9800 | 3.9 | –
4 | COc1cc(NC(C(=O)c2c[nH]c3cc(F)c(C)cc23)c2ccc(Cl)cc2OC)cc(S(C)(=O)=O)c1 (single isomer, unassigned) [Compound 7A, 2-(4-chloro-2-methoxyphenyl)-1-(6-fluoro-5-methyl-1H-indol-3-yl)-2-((3-methoxy-5-(methylsulfonyl)phenyl)amino)ethanone] | 6800 | 13 | –
5 | COc1cc(NC(C(=O)c2c[nH]c3c(C)c(F)ccc23)c2ccc(Cl)cc2OC)cc(S(C)(=O)=O)c1 (single isomer, unassigned) [Compound 2B, 2-(4-chloro-2-methoxyphenyl)-1-(6-fluoro-7-methyl-1H-indol-3-yl)-2-((3-methoxy-5-(methylsulfonyl)phenyl)amino)ethanone] | 7400 | 26 | –
6 | COc1cc(NC(C(=O)c2c[nH]c3cc(OC)c(F)cc23)c2ccc(Cl)cc2OC)cc(S(C)(=O)=O)c1 (single isomer, unassigned) [Compound 5B, 2-(4-chloro-2-methoxyphenyl)-1-(5-fluoro-6-methoxy-1H-indol-3-yl)-2-((3-methoxy-5-(methylsulfonyl)phenyl)amino)ethanone] | 13000 | 68 | –
7 | COc1cc(NC(C(=O)c2c[nH]c3cc(F)ccc23)c2ccc(Cl)cc2OC)cc(S(C)(=O)=O)c1 (single isomer, unassigned) [Compound 1B, 2-(4-chloro-2-methoxyphenyl)-1-(6-fluoro-1H-indol-3-yl)-2-((3-methoxy-5-(methylsulfonyl)phenyl)amino)ethanone] | 6500 | 12 | –
8 | COc1cc(NC(C(=O)c2c[nH]c3c(C)cc(OC(F)(F)F)cc23)c2ccc(Cl)cc2OC)cc(S(C)(=O)=O)c1 (single isomer, unassigned) [Compound 11B, 2-(4-chloro-2-methoxyphenyl)-2-((3-methoxy-5-(methylsulfonyl)phenyl)amino)-1-(7-methyl-5-(trifluoromethoxy)-1H-indol-3-yl)ethanone] | 9200 | 4.1 | –
9 | COc1cc(NC(C(=O)c2c[nH]c3ccc(C(F)(F)F)cc23)c2ccc(Cl)cc2OC)cc(S(C)(=O)=O)c1 (single isomer, unassigned) [Compound 8A, 2-(4-chloro-2-methoxyphenyl)-2-((3-methoxy-5-(methyl-sulfonyl)phenyl)amino)-1-(5-(trifluoromethyl)-1H-indol-3-yl)ethanone] | 7400 | 3 | –
10 | COc1cc(NC(C(=O)c2c[nH]c3c(C)c(OC)ccc23)c2ccc(Cl)cc2OC)cc(S(C)(=O)=O)c1 (single isomer, unassigned) [Compound 6B, 2-(4-chloro-2-methoxyphenyl)-2-((3-methoxy-5-(methyl-sulfonyl)phenyl)amino)-1-(6-methoxy-7-methyl-1H-indol-3-yl)ethanone] | 11000 | 19 | –
11 | COc1cc(NC(C(=O)c2c[nH]c3cc(OC)ccc23)c2ccc(Cl)cc2OC)cc(S(C)(=O)=O)c1 (single isomer, unassigned) [Compound 3B, 2-(4-chloro-2-methoxyphenyl)-1-(6-methoxy-1H-indol-3-yl)-2-((3-methoxy-5-(methylsulfonyl)phenyl)amino)ethanone] | > 9700 | 3.8 | –
12 | COc1cc(NC(C(=O)c2c[nH]c3cc(F)ccc23)c2ccc(Cl)cc2OC)cc(S(C)(=O)=O)c1 (racemic) [Compound 1, 2-(4-chloro-2-methoxyphenyl)-1-(6-fluoro-1H-indol-3-yl)-2-((3-methoxy-5-(methylsulfonyl)phenyl)amino)ethanone] | 5500 | – | 0.52
